Literature values as cited in US20230190684A1, “METHODS OF TREATING COVID-19 WITH A NICLOSAMIDE COMPOUND” (priority 2020, published 2023).
Structures can show the parent of a compound that is named as a salt.

Experiments:
[1] = in vivo
[2] = patients treated with niclosamide; literature (McEvoy 1995)

Row | Structure (SMILES) | solubility in acetone (acetone) | solubility in ether, ethanol and chloroform (ether, ethanol and chloroform) | water solubility (water, 20° C.) | systemic bioavailability [1] | Less frequently reported AEs: rash, oral irritation, fever, rectal bleeding, weakness, bad taste in mouth, sweating, palpitation, constipation, alopecia, oedema of an arm, backache, irritability [2] | Other reported AEs: vomiting; abdominal discomfort possibly associated with anorexia, diarrhea, drowsiness, dizziness and headache [2] | dissolves in distilled water (distilled water, 20° C.)
1 | O=C(Nc1ccc([N+](=O)[O-])cc1Cl)c1cc(Cl)ccc1O [Niclosamide, 5-chloro-N-(2-chloro-4-nitrophenyl)-2-hydroxybenzamide] | soluble | sparingly soluble | 5 to 8 µg/mL | low | < 1% | 1-4 % of patients | 
2 | O=C(Nc1ccc([N+](=O)[O-])cc1Cl)c1cc(Cl)ccc1O [ethanolamine salt, 5-chloro-salicyl-(2-chloro-4-nitro) anilide 2-aminoethanol salt] |  |  |  |  |  |  | 180 to 280 mg/L
